Test results from US8034908B2, “Glycolipids and synthetic method thereof as well as their synthetic intermediates, and synthetic method thereof” (Japan as Represented by President of National Center of …, priority 2003, dated 2011).

Experiments:
[1] = test system: Splenocytes; assay: Test of production of cytokines by glycolipid derivative (in vitro), mouse splenocytes, ELISA; type: cell-based, C57BL/6 mice; conditions: for IFN-γ / IL-4: glycolipid 100 ng/ml, 72 hours culture, culture supernatant, ELISA
Protocol: Test of Production of Cytokines by Glycolipid Derivative (In Vitro)
Splenocytes were prepared from the spleens of C57BL/6 mice (6 to 8 weeks old, female) and suspended in a RPMI1640 medium (purchased by Nakarai) containing 10% fetal bovine serum (purchased by GIBCO), 5×10-^5M 2-mercaptoethanol (purchased by GIBCO), 1 mM pyruvate (purchased by SIGMA), and 25 mM HEPE (purchased by SIGMA). These were seeded on a 96-well flat bottom plate (purchased by IWAKI) in an amount of 5×10e5 cells/well and a glycolipid derivative was added to each at a final concentration of 100 ng/ml. The results were cultured at 37° C. in the presence of 5% CO2 for 72 hours, then the culture supernatent was collected. The concentration of the IL-4 and IFN-γ in the culture supernatent were measured by ELISA (BD Pharmingen EIA Kit) (Table 2).

[2] = test system: mouse experimental autoimmunological encephalomyelitis (EAE) model; conditions: oral administration; cited from earlier work
[3] = test system: NKT cells; conditions: cited from earlier work

SMILES	IFN-γ [1] [pg/mL]	IL-4 [1] [pg/mL]	Effect in EAE model (in words) [2]	Cytokines produced by NKT cells (in words) [3]	IFN-γ producing activity (in words) ([1]; compared with α-GalCer, Table 2)
CCCCCCCCCCCCCCCCCCCCCCCC(=O)N[C@@H](COC1OC(CO)C(O)C(O)C1O)[C@H](O)[C@H](O)CC1CCCC1 (stereo partly drawn) [Compound 116, 5-cyclopentyl-2-tetracosanoylamino-1-O-α-D-galactopyranosyl-D-ribo-1,3,4-pentanetriol]	5268	226			
CCCCCCCCCCCCCCCCCCCCCCC(=O)N[C@@H](COC1OC(CO)C(O)C(O)C1O)[C@H](O)[C@H](O)CC (stereo partly drawn) [Compound 112, 2-tricosanoylamino-1-O-α-D-galactopyranosyl-D-ribo-1,3,4-hexanetriol]	5832	237			
CCCCCCCCCCCCCCCCCCCCCC(=O)N[C@@H](COC1OC(CO)C(O)C(O)C1O)[C@H](O)[C@H](O)CCC (stereo partly drawn) [Compound 111, 2-docasanoylamino-1-O-α-D-galactopyranosyl-D-ribo-1,3,4-heptanetriol]	7413	256			
CCCCCCCCCCCCCCCCCCCCCCC(=O)N[C@@H](COC1OC(CO)C(O)C(O)C1O)[C@H](O)[C@H](O)CCCC (stereo partly drawn) [Compound 110, 2-tricosanoylamino-1-O-α-D-galactopyranosyl-D-ribo-1,3,4-octanetriol]	10614	226			
CCCCCCCCCCCCCCCCCCCCCC(=O)N[C@@H](COC1OC(CO)C(O)C(O)C1O)[C@H](O)[C@H](O)CCCCCC (stereo partly drawn) [Compound 113, 2-docasanoylamino-1-O-α-D-galactopyranosyl-D-ribo-1,3,4-decanetriol]	7967	251			
CCCCCCCCCCCCCCOc1ccc(CCCCC(=O)N[C@@H](COC2OC(CO)C(O)C(O)C2O)[C@H](O)[C@H](O)CCCCC)cc1 (some centres unmarked) [Compound 127]	2506	159			
CCCCCCCCCCCCCCCCCCCCCCCC(=O)N[C@@H](COC1OC(CO)C(O)C(O)C1O)[C@H](O)[C@H](O)Cc1ccc(C)cc1 (stereo partly drawn) [Compound 117, 5-(4-methylphenyl)-2-tetracosanoylamino-1-O-α-D-galactopyranosyl-D-ribo-1,3,4-pentanetriol]	5485	181			
CCCCCCCCCCCCCCCCCCCCCCC(=O)N[C@@H](CO[C@H]1O[C@H](CO)[C@H](O)[C@H](O)[C@H]1O)[C@H](O)[C@H](O)CCCCCC [Compound 114, 2-tricosanoylamino-1-O-α-D-galactopyranosyl-D-ribo-1,3,4-decanetriol]	8067	225			
CCCCCCCCCCCCCCCCCCCCCCCC(=O)N[C@@H](COC1OC(CO)C(O)C(O)C1O)[C@H](O)[C@H](O)CCc1ccccc1 (stereo partly drawn) [Compound 115, 6-phenyl-2-tetracosanoylamino-1-O-α-D-galactopyranosyl-D-ribo-1,3,4-hexanetriol]	2481	137			
CCCCCCCCCCCCCCCCCCCCCCCC(=O)N[C@@H](CO[C@H]1O[C@H](CO)[C@H](O)[C@H](O)[C@H]1O)[C@H](O)[C@H](O)CCCCC.O [Compound 129, 2-tetracosanoylamino-1-O-α-D-galactopyranosyl-D-ribo-1,3,4-nonanetriol 1-hydrate]	7179	232			
CCCCCCCCCCCCCCCCCCCCCCCC(=O)N[C@@H](COC1OC(CO)C(O)C(O)C1O)[C@H](O)[C@H](O)CCCCC (some centres unmarked) [OCH]			effected in oral administration	more selectively promotes the production of IL-4	
CCCCCCCCCCCCCCCCCCCCCCCCCC(=O)N[C@@H](CO[C@H]1O[C@H](CO)[C@H](O)[C@H](O)[C@H]1O)[C@H](O)[C@H](O)CCCCCCCCCCCCCC [α-Galcer, (2S,3S,4R)-1-O-(α-D-galactosyl)-2-(N-hexacosanoylamino)-1,3,4-octadecanetriol, reference compound]	21900	201		causes NKT cells to produce IFN-γ and IL-4	IFN-γ was produced remarkably dominantly
